Holding throughout (format): binding
Assay [1] addresses T1, FGF-R3C ECD (Homo sapiens, UniProt P22607).
T1 sequence (P22607 23-375 limits assumed): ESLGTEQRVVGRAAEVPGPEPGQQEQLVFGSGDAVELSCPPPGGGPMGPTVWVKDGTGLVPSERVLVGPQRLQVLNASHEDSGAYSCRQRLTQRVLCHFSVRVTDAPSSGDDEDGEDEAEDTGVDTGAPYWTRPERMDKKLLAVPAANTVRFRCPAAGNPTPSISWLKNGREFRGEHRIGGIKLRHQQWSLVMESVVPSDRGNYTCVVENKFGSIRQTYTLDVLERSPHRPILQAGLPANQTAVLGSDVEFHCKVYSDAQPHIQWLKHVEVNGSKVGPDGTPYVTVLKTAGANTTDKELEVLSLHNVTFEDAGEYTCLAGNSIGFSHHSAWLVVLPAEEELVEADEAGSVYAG
The experiment in a line: biochemical. More on the design: DNA constructs for the extracellular domain (ECD) of human FGF-; HPC4 (C); made in house; host or cells: HEK 293-6E. The method, boiled down:
(§1)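 Biolayer interferometry with biotinylated FGF-R ECD on streptavidin biosensors in PBS pH 7.4, 0.05% Tween-20, 0.01% BSA. Multi-concentration: purified peptide dilution series fitted to a multi-point KD model.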

Assay [2] addresses T2, FGF-R1C ECD (Homo sapiens, UniProt P11362).
T2 sequence (P11362 22-376 limits assumed): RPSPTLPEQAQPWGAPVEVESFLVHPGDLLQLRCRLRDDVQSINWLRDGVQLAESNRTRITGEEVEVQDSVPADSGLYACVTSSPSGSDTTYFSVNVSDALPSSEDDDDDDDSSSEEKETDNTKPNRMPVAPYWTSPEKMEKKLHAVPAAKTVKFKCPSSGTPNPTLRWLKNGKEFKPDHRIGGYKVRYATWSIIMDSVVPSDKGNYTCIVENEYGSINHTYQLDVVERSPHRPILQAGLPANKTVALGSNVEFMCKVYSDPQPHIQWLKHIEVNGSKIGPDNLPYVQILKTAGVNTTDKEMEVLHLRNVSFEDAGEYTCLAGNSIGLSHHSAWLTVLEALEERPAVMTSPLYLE
The experiment in a line: biochemical. More on the design: DNA constructs for the extracellular domain (ECD) of human FGF-; HPC4 (C); made in house; host or cells: HEK 293-6E. The method, boiled down:
as §1

Assay [3] addresses T3, FGF-R4 ECD (Homo sapiens, UniProt P22455).
T3 construct: DNA constructs for the extracellular domain (ECD) of human FGF-; HPC4 (C); made in house; host or cells: HEK 293-6E
T3 sequence (P22455 22-369 limits assumed): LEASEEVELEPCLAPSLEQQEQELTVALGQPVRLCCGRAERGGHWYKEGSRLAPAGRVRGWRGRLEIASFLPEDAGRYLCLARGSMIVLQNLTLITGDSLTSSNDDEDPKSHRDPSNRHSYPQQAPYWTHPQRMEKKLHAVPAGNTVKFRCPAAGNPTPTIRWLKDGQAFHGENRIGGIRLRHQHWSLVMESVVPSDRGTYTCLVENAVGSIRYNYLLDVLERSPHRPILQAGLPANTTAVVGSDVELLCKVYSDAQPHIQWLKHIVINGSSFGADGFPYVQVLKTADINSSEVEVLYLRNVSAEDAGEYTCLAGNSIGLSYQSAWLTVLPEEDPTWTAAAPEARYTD
The experiment in a line: single concentration BLI of crude peptides. The settings on record: crude T18 selection 1 (1:1:1) peptides, single concentration BLI (Table S4); read-out: KD (4). The gist of the method:
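Biotinylated FGF-R ECD on streptavidin biosensors was dipped into ~1 μM crude peptide in PBS pH7.4 with 0.05% Tween-20 and 0.01% BSA for association, then into buffer for dissociation, and followed by BLI. Fitted KD values were adjusted for peptide concentration measured by UPLC-CAD.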

Positions of bridges follow the written chain, without caps; N, C: chain ends. Residues, ends and D or L forms follow the SMILES beside them. A value given as a limit tells only on which side of the number the result lay.

For orientation: Kd means the free concentration of one partner at which half of the binding sites on the other are occupied at equilibrium, for simple one-to-one binding. For `CSCC[C@H](NC(C)=O)C(=O)N[C@H]1CSSC[C@@H](C(=O)NCC(=O)N[C@@H](CO)C(=O)NCC(=O)N[C@@H](CO)C(=O)N[C@@H](CC(=O)O)C(=O)N[C@@H](Cc2ccc(O)cc2)C(=O)N[C@@H](CCCCN)C(=O)N[C@@H](CC(=O)O)C(=O)N[C@@H](CC(=O)O)C(=O)N[C@@H](CC(=O)O)C(=O)N[C@@H](CC(=O)O)C(=O)N[C@@H](CCCCN)C(N)=O)NC(=O)[C@H](C(C)C)NC(=O)[C@H](CCCCN)NC(=O)[C@H](Cc2ccccc2)NC(=O)[C@H](Cc2c[nH]c3ccccc23)NC(=O)[C@H](Cc2ccccc2)NC(=O)[C@H](CCC(=O)O)NC(=O)[C@H](Cc2c[nH]cn2)NC(=O)[C@H](CCC(N)=O)NC(=O)[C@H](CCCCN)NC(=O)[C@H](Cc2ccccc2)NC(=O)[C@H](Cc2c[nH]c3ccccc23)NC(=O)[C@H](Cc2c[nH]c3ccccc23)NC1=O` (Ac-MCWWFKQHEFWFKVCGSGSDYKDDDDK-NH2; disulfide 2-15), the figures for the Kd in assay [1], in assay [2] and in assay [3] were more than 10 µM, more than 10 µM and 0.002 µM, respectively.

For the compound `CC[C@H](C)[C@@H]1NC(=O)[C@H](CCC(=O)O)NC(=O)[C@H](Cc2ccc(O)cc2)NC(=O)[C@H](CCC(=O)O)NC(=O)[C@H](CCCCN)NC(=O)[C@@H](NC(=O)[C@H](CCSC)NC(C)=O)CSSC[C@@H](C(=O)NCC(=O)N[C@@H](CO)C(=O)NCC(=O)N[C@@H](CO)C(=O)N[C@@H](CC(=O)O)C(=O)N[C@@H](Cc2ccc(O)cc2)C(=O)N[C@@H](CCCCN)C(=O)N[C@@H](CC(=O)O)C(=O)N[C@@H](CC(=O)O)C(=O)N[C@@H](CC(=O)O)C(=O)N[C@@H](CC(=O)O)C(=O)N[C@@H](CCCCN)C(N)=O)NC(=O)[C@H](Cc2ccc(O)cc2)NC(=O)[C@H](CCC(N)=O)NC(=O)[C@H](CC(C)C)NC(=O)[C@H](CCCCN)NC(=O)[C@H](Cc2ccc(O)cc2)NC(=O)[C@H](Cc2c[nH]c3ccccc23)NC(=O)[C@H](CC(C)C)NC1=O` (Ac-MCKEYEILWYKLQYCGSGSDYKDDDDK-NH2; disulfide 2-15), the equilibrium dissociation constant (Kd) in assay [1] is more than 10 µM; in assay [2] it was more than 10 µM; in assay [3] it was 0.017 µM.

For `CC[C@H](C)[C@@H]1NC(=O)[C@H](CCCCN)NC(=O)[C@H](Cc2ccc(O)cc2)NC(=O)[C@H](Cc2ccc(O)cc2)NC(=O)[C@H]([C@@H](C)CC)NC(=O)[C@H](CC(C)C)NC(=O)[C@H](Cc2c[nH]cn2)NC(=O)[C@H](CCCNC(=N)N)NC(=O)[C@H](CCCCN)NC(=O)[C@@H](NC(=O)[C@H](CCSC)NC(C)=O)CSSC[C@@H](C(=O)NCC(=O)N[C@@H](CO)C(=O)NCC(=O)N[C@@H](CO)C(=O)N[C@@H](CC(=O)O)C(=O)N[C@@H](Cc2ccc(O)cc2)C(=O)N[C@@H](CCCCN)C(=O)N[C@@H](CC(=O)O)C(=O)N[C@@H](CC(=O)O)C(=O)N[C@@H](CC(=O)O)C(=O)N[C@@H](CC(=O)O)C(=O)N[C@@H](CCCCN)C(N)=O)NC(=O)[C@H](CCCNC(=N)N)NC(=O)[C@H](C)NC1=O` (Ac-MCKRHLIYYKIARCGSGSDYKDDDDK-NH2; disulfide 2-14), the Kd was 1.54 µM in assay [1], more than 10 µM in assay [2] and 0.001 µM in assay [3].

With `CC[C@H](C)[C@@H]1NC(=O)[C@H](CC(N)=O)NC(=O)[C@H](CCCCN)NC(=O)[C@H](Cc2ccc(O)cc2)NC(=O)[C@@H](NC(=O)[C@H](CCSC)NC(C)=O)CSSC[C@@H](C(=O)NCC(=O)N[C@@H](CO)C(=O)NCC(=O)N[C@@H](CO)C(=O)N[C@@H](CC(=O)O)C(=O)N[C@@H](Cc2ccc(O)cc2)C(=O)N[C@@H](CCCCN)C(=O)N[C@@H](CC(=O)O)C(=O)N[C@@H](CC(=O)O)C(=O)N[C@@H](CC(=O)O)C(=O)N[C@@H](CC(=O)O)C(=O)N[C@@H](CCCCN)C(N)=O)NC(=O)[C@H](Cc2ccccc2)NC(=O)[C@H](C(C)C)NC(=O)[C@H](CC(C)C)NC(=O)[C@H](C(C)C)NC(=O)CNC(=O)[C@H](CC(N)=O)NC(=O)[C@H](CC(=O)O)NC1=O` (Ac-MCYKNIDNGVLVFCGSGSDYKDDDDK-NH2; disulfide 2-14), the equilibrium dissociation constant (Kd) in assay [1] was more than 10 µM; in assay [2], more than 10 µM; in assay [3], 0.014 µM.
